Tests used:
[1] = test system: KM mice (tail suspension model of behavioral despair); assay: Tail suspension test after single intraperitoneal injection; format: in vivo; settings: tail suspension test 0.5 h after administration, last 4 min, mean ± SEM
Procedure: (§1) The experimental animals were male SPF grade KM mice purchased from Kunming Medical University, weighed 21-24 g, certificate no. SCXK(Dian)K2015-0002. The experimental animals were bred in individually ventilated cages (IVCs) in animal room in Dianqing Biotechnology, Ltd., Yunnan (facility no. 13-11-078 and 13-11-079; manufacture date: Nov. 24, 2013). The room temperature was controlled at 22-24° C. with humidity at 40-70% and 12-hour light/dark cycle (7:00 am/19:00 pm). The cages and padding were changed twice a week. The raising method was group raising and there were 10 mice accommodated in each cage. The feed was sterilized feed from Jiangsu Xietong Medical Bioengineering, Ltd., certificate no.: (2014)01008. Feed was supplied once daily with free access. Tap water was supplied in boxes with free access.
A. Behavioral testing was performed in different treatment groups (1.0 mg/kg, 5.0 mg/kg, 10.0 mg/kg, 20.0 mg/kg) 0.5 h after intraperitoneal (i.p.) injection of the compound of formula 1;
B. In the control group receiving normal saline (NS), the behavioral testing was conducted at the same time;
C. In the control group receiving imipramine (IMI; 15 mg/kg), the behavioral testing was conducted at the same time;
Route of administration: The test compound of formula 1, normal saline or imipramine was administered by intraperitoneal injection according to the experimental design.
Time of administration: The animals were accommodated to the experimental environment for 1 hour, administrated by intraperitoneal injection and subjected to tail suspension test 0.5 hour after the administration.
Test criterion: The mice were subjected to a 6-minute tail suspension test, and the cumulative time of immobility in the first 2 minutes and the last 4 minutes was recorded. The criterion for immobility was that the mouse stops struggling and remains steady.
(§2) A depression model of behavioral despair, ie. tail suspension model, was used. Animals were accommodated to the company's breeding environment for 1 day. During the adaptation, animals with non-smooth and unclean hair, high alertness or aggressivity were excluded.
(§3) Animals were accommodated to the experimental environment for 1 hour, weighed, and randomized according to the body weight into a normal saline control group, an imipramine control group and treatment groups with different doses.
(§4) In the tail suspension test, animals in all groups for tail suspension test were administered with corresponding drugs by a single intraperitoneal injection. 0.5 h after the administration, tails of mice were fixed with medical tape at about 1-2 cm from the end, such that the mice were hanged in the tail suspension box with the heads about 10 cm above the bottom of the box. The observation started immediately after hanging. In the 6-minute observation, the cumulative time of immobility in the first 2 minutes and the last 4 minutes was recorded. A video was recorded with obviously contrasted background with the hair color of the mice, for example, black background was used for white mice.
(§5) The cumulative time of immobility within the last 4 minutes was compared between the test compound groups and the normal saline group using SPSS 11.0 software. One-way analysis of variance (ANOVA) was used for comparison among multiple groups, and independent sample T test was performed for comparisons in pairs. P <0.05 indicates a statistically significant difference. All statistical diagrams were plotted in mean ±SEM using Origin 8.0 software.

[2] = Solubility in water (description of test compound); format: physicochemical
[3] = test system: KM mice (tail suspension model of behavioral despair); assay: Tail suspension test after single intragastric (oral) administration; format: in vivo; settings: tail suspension test 1 h after administration, last 4 min, mean ± SEM
Procedure: as §1, with “with free access . Tap water” for “with free access. Tap water”
A. Behavioral testing was performed in different treatment groups (1.0 mg/kg, 5.0 mg/kg, 10.0 mg/kg, 15.0 mg/kg, 30.0 mg/kg) 1 h after intragastric (i.g.) administration of the compound of formula 1;
B. In the negative control group receiving normal saline (NS), the behavioral testing was conducted at the same time;
C. In the positive control group receiving imipramine (IMI; 15 mg/kg), the behavioral testing was conducted at the same time;
Route of administration: The test compound of formula 1, normal saline or imipramine was administered by intragatric administration according to the experimental design.
Time of administration: The animals were accommodated to the experimental environment for 1 hour, administrated by intragatric administration, and subjected to tail suspension test 1 hour after the administration.
Test criterion: The mice were subjected to a 6-minute tail suspension test, and the cumulative time of immobility in the first 2 minutes and the last 4 minutes was recorded. The criterion for immobility is that the mouse stops struggling and remains steady.
as §2, §3
as §4, with “groups” for “groups for tail suspension test”, “intragastric administration. 1” for “intraperitoneal injection. 0.5”
as §5

NMDA receptor = assay: Whole-cell NMDAR current (NMDAR-EPSC) recording in hippocampal CA1 pyramidal cells of brain slices; format: cell-based, mice; settings: hippocampal CA1 pyramidal cells at +40 mV, last 10 min of 20 min
Procedure: Male C57BL/6 mice, aged 3-9 weeks, were purchased from Beijing Vital River Laboratory Animal Technology Co., Ltd. (Beijing, China). The animals were bred at 23 ±1° C. The room temperature was controlled at 22-24° C. with humidity at 40-70% and 12-hour light/dark cycle (7:00 am/19:00 pm).
A. The baseline whole-cell NMDAR current was recorded in 10 minutes before the compound of formula 1 (0.76, 3.8 mM/L) was dissolved in artificial cerebrospinal fluid (vehicle) and added with the brain slice circulation fluid.
B. An identical volume of artificial cerebrospinal fluid (vehicle) was added with the brain slice circulation fluid.
Treatment: The brain slice circulation fluid was directly added.
Time of treatment: 10 minutes after baseline recording.
Test item: depolarization voltage-induced whole-cell NMDAR receptor currents.
Hippocampal brain slices: The animals were anesthetized with isoflurane and the brains were collected quickly. […]
Whole-cell NMDAR current recording: NMDAR whole cell EPSC recording was performed in hippocampal CA1 pyramidal cells. […] The electrical signal in whole cells was recorded using a Clampfit 10.3 software (Axon Instruments) equipped with an Axopatch-700B amplifier (Axon Instruments, Foster City, Calif.) and a Digiclata 1440A digital-to-analog converter, with filtering set at 2.8 kHz and sampling at 10 kHz. […]

| Solubility in water [2] | Compound | Time of immobility (% of NS) ([1]; 1 mg/kg i.p.) | Time of immobility (% of NS) ([1]; 5 mg/kg i.p.) | Time of immobility (% of NS) ([1]; 10 mg/kg i.p.) | Time of immobility (% of NS) ([1]; 20 mg/kg i.p.) | Time of immobility (% of NS) ([3]; 1 mg/kg i.g.) | Time of immobility (% of NS) ([3]; 5 mg/kg i.g.) | Time of immobility (% of NS) ([3]; 10 mg/kg i.g.) | Time of immobility (% of NS) ([3]; 15 mg/kg i.g.) | Time of immobility (% of NS) ([3]; 30 mg/kg i.g.) | NMDAR current (% of Baseline) (NMDA receptor; 0.76 mM/L in circulating artificial cerebrospinal fluid) | NMDAR current (% of Baseline) (NMDA receptor; 3.8 mM/L in circulating artificial cerebrospinal fluid) | Time of immobility (% of NS) ([1]; 15 mg/kg i.p.) |
| --- | --- | --- | --- | --- | --- | --- | --- | --- | --- | --- | --- | --- | --- |
| easily soluble in water | Cc1ccc(O[C@@H]2OC(CO)[C@@H](O)[C@H](O)C2O)cc1O[C@@H]1OC(CO)[C@@H](O)[C@H](O)C1O (some centres unmarked) [Compounds of formula 1] | 104.02 ± 16.80 % of NS | 72.12 ± 8.57 % of NS | 60.44 ± 7.53 % of NS | 104.66 ± 14.75 % of NS | 87.14 ± 11.27 % of NS | 72.67 ± 7.89 % of NS | 66.86 ± 8.80 % of NS | 68.33 ± 7.17 % of NS | 77.38 ± 6.00 % of NS | 108.80 ± 5.86 % of Baseline | 155.53 ± 20.85 % of Baseline | – |
| – | CN(C)CCCN1c2ccccc2CCc2ccccc21 [IMI, imipramine, reference compound] | – | – | – | – | – | – | – | 58.64 ± 5.42 % of NS | – | – | – | 58.12 ± 5.66 % of NS |
